Consider five compounds from patent publication US10125101B2, “Indanylaminopyridylcyclopropanecarboxylic acids, pharmaceutical compositions and uses thereof” (Boehringer Ingelheim International GmbH, priority 2016, dated 2018).

Values after ≈ are worked out from the molar mass of the structure shown. Read-outs that look alike come from different tables or passages of the source.

The nature of one data set: Aqueous solubility. In kind it is physicochemical. Conditions: buffer pH 2.2, 24 h shaking, 2.5% DMSO; for solubility at 24 h: aqueous buffer, kinetic from dmso stock. How it is done:
Starting from a 10 mM DMSO stock solution aliquots are diluted with acetonitrile/water (1/1) or buffer, respectively. After 24 h of shaking, the solutions are filtrated and analyzed by LC-UV. The amount dissolved in buffer is compared to the amount in the acetonitrile solution.

For data set [1], the target named is cytochrome P450 2C8-isoenzyme (Homo sapiens (Human), UniProt P10632). Nature of the data set: Inhibition of CYP-2C8 (amodiaquine deethylation, human liver microsomes). It is filed as in vitro ADME. Conditions: amodiaquine 1 μM, 37° C. How it is done:
(§1) All assays are carried out on a robotic system in 96 well plates. The final incubation volume contains TRIS buffer (0.1 M), MgCl2 (5 mM), human liver microsomes (0.05 mg/mL), amodiaquine (1 μM) and the test compound at five different concentrations or no compound (high control) in duplicate (e.g. highest concentration 10-50 μM with subsequent serial 1:4 dilutions). Following a short preincubation period, reactions are started with the cofactor (NADPH, 1 mM) and stopped by cooling the incubation down to 8° C. and subsequently by addition of one volume of acetonitrile. An internal standard solution—the stable isotope d5-desethylamodiaquine—is added after quenching of incubations. Peak area analyte (=metabolite formed) and internal standard is determined by LC-MS/MS. The resulting peak area ratio analyte to internal standard in these incubations is compared to a control activity containing no test compound. Within each of the assay runs, the IC50 of a positive control inhibitor (Montelukast) is determined.
(In general: Liver microsomes are a subcellular fraction often used to study metabolism.)

Data set [2] addresses cytochrome P450 2C9-isoenzyme (Homo sapiens (Human), UniProt P11712). Nature of the data set: Inhibition of CYP-2C9 (diclofenac hydroxylation, human liver microsomes). In kind it is in vitro ADME. Conditions: diclofenac 10 μM, 37° C. The protocol:
as §1, with “(0.1” for “(0.05”, “diclofenac (10” for “amodiaquine (1”, “(e.g.,” for “(e.g.”, “^13C6-hydroxydiclofenac—is” for “d5-desethylamodiaquine—is”, “(sulfaphenazole)” for “(Montelukast)”

Data set [3] in a line: Chemical stability (degradation kinetics) in acidic aqueous media. In kind it is physicochemical. To be noted: pH value ca. 1.2 (acetonitrile/0.1 M aqueous HCl 2:3), 37° C. The protocol:
Degradation kinetics is used to simulate chemical stability of compounds in the acidic part of the gastro intestinal tract. […] Their application as medical drugs to treat human diseases is therefore less restricted and troublesome.
The chemical stability of the compounds of the invention at pH value of ca. 1.2 is determined as follows:
Compound is dissolved in an HPLC vial either in a mixture of acetonitrile/0.1 M aqueous HCl (2:3; pH ca. 1.2) or in a mixture of acetonitrile/McIlvaine buffer pH 7.4 (2:3) to get a concentration of approximately 0.25 mg/ml. The vial was then transferred into an HPLC autosampler system and maintained at a temperature of 37° C. A first sample is taken and injected immediately into a standard HPLC system with a UV DAD detector. Further samples are injected after 2, 4, 6, 8 and 10 hours. Amount of degraded compound is measured by determining the recovery rate of compound [%] for each injection using an HPLC standard gradient method. Therefore the peak area of the main peak for the first injection (AUt0) is determined and set as 100%. Peak area of the main peak is determined also for the further injections (AUtn, n=2, 4, 6, 8, 10) and expressed as fraction of (AUt0)/(AUtn, n=2, 4, 6, 8, 10) [%].

For the next data set, the target named is human GPR40 receptor (Homo sapiens (Human), UniProt O14842). Nature of the data set: IP1 accumulation measurements using the IPOne assay system. It is filed as cell-based. The protocol: IP1 accumulation measurements using the IPOne assay system—1321N1 cells stably expressing human GPR40 receptor (Euroscreen, Belgium) are seeded 24 h before the assay in white 384-well plates in culture medium containing 10% FCS, 1% Na-Pyruvate and 400 μg/mL G418. IP1 is assayed according to the manufacturer's description (Cisbio Bioassays, France). In brief, the assay is started by substitution of the culture medium by stimulation buffer (Hepes 10 mM, CaCl2 1 mM, MgCl2 0.5 mM, KCl 4.2 mM, NaCl 146 mM, glucose 5.5 mM and LiCl 50 mM, pH 7.4). Cells are stimulated for 1 h at 37° C., 5% CO2 by addition of the compounds that are diluted in stimulation buffer containing LiCl. Assays are stopped by adding HTRF-conjugates (IP1-d2 and Anti-IP1 cryptate Tb) and lysis buffer, provided by the manufacturer. After an incubation time of 1 h at room temperature plates are measured using an EnVision™, Perkin Elmer. The obtained fluorescence ratios at 665/615 […] are then used to calculate the pEC50 values using Assay Explorer 3.3 Software (Accelrys, Inc.) by interpolation using an IP1 reference curve and subsequent sigmoidal curve fitting allowing for a variable hill slope.
human GPR40 receptor, sequence (O14842 whole entry): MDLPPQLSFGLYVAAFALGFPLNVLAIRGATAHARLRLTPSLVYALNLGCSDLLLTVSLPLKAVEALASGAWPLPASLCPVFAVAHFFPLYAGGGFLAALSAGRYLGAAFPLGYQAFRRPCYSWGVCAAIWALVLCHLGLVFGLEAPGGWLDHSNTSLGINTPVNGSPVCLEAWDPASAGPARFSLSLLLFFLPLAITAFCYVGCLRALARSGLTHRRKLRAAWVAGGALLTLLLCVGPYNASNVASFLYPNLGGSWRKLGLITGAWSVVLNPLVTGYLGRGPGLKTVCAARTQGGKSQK

cytochrome P450 2C9-isoenzyme, sequence (P11712 whole entry): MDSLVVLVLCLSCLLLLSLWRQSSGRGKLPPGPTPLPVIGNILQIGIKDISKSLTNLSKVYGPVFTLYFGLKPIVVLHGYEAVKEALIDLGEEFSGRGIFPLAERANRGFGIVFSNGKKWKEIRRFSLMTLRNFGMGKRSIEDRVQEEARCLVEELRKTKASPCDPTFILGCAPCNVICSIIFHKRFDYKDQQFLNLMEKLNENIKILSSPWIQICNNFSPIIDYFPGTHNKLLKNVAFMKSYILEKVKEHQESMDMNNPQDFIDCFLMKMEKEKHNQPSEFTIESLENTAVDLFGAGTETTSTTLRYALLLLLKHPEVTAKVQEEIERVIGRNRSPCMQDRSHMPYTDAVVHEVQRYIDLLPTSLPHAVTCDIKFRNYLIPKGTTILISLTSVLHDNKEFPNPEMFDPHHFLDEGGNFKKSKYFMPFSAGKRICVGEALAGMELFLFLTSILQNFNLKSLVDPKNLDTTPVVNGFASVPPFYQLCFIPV
cytochrome P450 2C8-isoenzyme, sequence (P10632 whole entry): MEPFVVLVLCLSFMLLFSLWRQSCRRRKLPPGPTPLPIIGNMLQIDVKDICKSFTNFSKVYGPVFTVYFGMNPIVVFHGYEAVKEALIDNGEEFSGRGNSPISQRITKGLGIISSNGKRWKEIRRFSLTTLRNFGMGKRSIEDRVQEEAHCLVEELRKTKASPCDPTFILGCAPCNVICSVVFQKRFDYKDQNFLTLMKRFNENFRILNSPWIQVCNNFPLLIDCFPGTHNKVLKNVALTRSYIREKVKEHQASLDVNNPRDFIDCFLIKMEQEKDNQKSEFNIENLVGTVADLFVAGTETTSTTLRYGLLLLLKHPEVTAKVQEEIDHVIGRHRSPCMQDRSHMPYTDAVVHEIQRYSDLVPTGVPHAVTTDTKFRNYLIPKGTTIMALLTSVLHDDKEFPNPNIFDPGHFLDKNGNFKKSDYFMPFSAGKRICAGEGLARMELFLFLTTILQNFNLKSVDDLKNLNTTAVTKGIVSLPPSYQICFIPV

For the compound `Cc1cc(O[C@@H]2COC[C@H]2O)cc(C)c1-c1ccc(F)c2c1CC[C@H]2Nc1ccc([C@H]2C[C@@H]2C(=O)O)nc1` [Example 5, (1S,2S)-2-(5-{(R)-7-Fluoro-4-[4-((3R,4R)-4-hydroxy-tetrahydro-furan-3-yloxy)-2,6-dimethyl-phenyl]-indan-1-ylamino}-pyridin-2-yl)-cyclopropanecarboxylic acid], the solubility at 24 h in the data set “Aqueous solubility” stood at 121 µg/mL (≈ 233 µM). Besides, the IC50 in data set [1] and in data set [2] was above 50 µM each time. In data set [3], the “Amount of degradation after 2 h” value is listed as below 0.5%. Further, the EC50 on human GPR40 receptor (1321N1 cells stably expressing human GPR40, 1 h stimulation, read-out: EC50) was found to be 0.035 µM.

Consider `Cc1cc(-c2nnn(C)n2)cc(C)c1-c1ccc(F)c2c1CC[C@H]2Oc1ccc([C@H]2C[C@@H]2C(=O)O)cc1` [Example 15 in WO 2013/178575], for which, in data set [3], the “Amount of degradation after 2 h” value came out at 3%.

For the compound `Cc1cc(OCCC(C)(C)O)cc(C)c1-c1ccc(F)c2c1CC[C@H]2Oc1ccc([C@H]2C[C@@H]2C(=O)O)cc1` [Example 17 in WO 2013/178575, reference compound], in the data set “Aqueous solubility”, the solubility at 24 h was below 1 µg/mL and the “Solubility at pH value 2.2” value is listed as below 1 μg/mL. In data set [1], this compound yielded an IC50 of 6 µM. Moreover, in data set [2], the IC50 came to 14 µM. The “Amount of degradation after 2 h” value in data set [3] was 8%. Moreover, on human GPR40 receptor (head-to-head compilation, given as IC50, values equal the EC50 of Table 2, read-out: GPR40: IC50), the EC50 is 0.004 µM.

`Cc1cc(-c2nnn(C)n2)cc(C)c1-c1ccc(F)c2c1CC[C@H]2Oc1ccc([C@H]2C[C@@H]2C(=O)O)cc1` [Example 33 in WO 2013/178575]: the “Amount of degradation after 2 h” value in data set [3] came out at 8%.

For `Cc1cc(-c2nnn(C)n2)cc(C)c1-c1ccc(F)c2c1CC[C@H]2Oc1ccc([C@H]2C[C@@H]2C(=O)O)cc1` [Example 54 in WO 2013/178575], the “Amount of degradation after 2 h” value in data set [3] stood at 2.5%^.

What is called solubility is the concentration that dissolves in the medium under given conditions. Read a low solubility as little dissolved substance. As a reminder, the IC50 is the concentration that inhibits the measured activity by half. Read a high IC50 as weaker potency. Broadly, the Solubility is the concentration that dissolves in the medium under given conditions.
